The results in this text go back to ChEMBL document CHEMBL1150740, “Studies on inhibitors of skin-tumor promotion, I. Inhibitory effects of triterpenes from Euptelea polyandra on Epstein-Barr virus activation” (J Nat Prod, 1987).

Holding throughout (format): cell-based
Series [1] concerns Raji. Kind of series: Inhibition of TPA-induced EBV-early antigen activation in human Raji cells assessed as early antigen activation at 1000 mol ratio after 48 hrs relative to TPA. Details: scale not given: the % may be the effect or the level left. To be noted: human gammaherpesvirus 4.
Series [2] in a line: Cytotoxicity against human Raji cells assessed as cell viability at 5000 mol ratio after 48 hrs relative to TPA. To be noted: read-out: Activity.
The test system of series [3] is Raji. Description: Inhibition of EBV-early antigen activation in human Raji cells assessed as early antigen activation at 1 uM ratio after 48 hrs. Details: scale not given: the % may be the effect or the level left.
Series [4] can be described thus: Cytotoxicity against human Raji cells assessed as cell viability at 10 mol ratio after 48 hrs relative to TPA. To be noted: read-out: Activity.
Series [5] can be described thus: Cytotoxicity against human Raji cells assessed as cell viability at 100 mol ratio after 48 hrs relative to TPA. To be noted: read-out: Activity.
Series [6] concerns Raji. Description: Inhibition of TPA-induced EBV-early antigen activation in human Raji cells assessed as early antigen activation at 10 mol ratio after 48 hrs relative to TPA. To be noted: human gammaherpesvirus 4.
Series [7] is described as follows: Cytotoxicity against human Raji cells assessed as cell viability at 1000 mol ratio after 48 hrs relative to TPA. To be noted: read-out: Activity.
For series [8], the system named is Raji. Description: Inhibition of TPA-induced EBV-early antigen activation in human Raji cells assessed as early antigen activation at 5000 mol ratio after 48 hrs relative to TPA. Also on record: scale not given: the % may be the effect or the level left. To be noted: human gammaherpesvirus 4.
Series [9] concerns Raji. Description: Inhibition of TPA-induced EBV-early antigen activation in human Raji cells assessed as early antigen activation at 100 mol ratio after 48 hrs relative to TPA. To be noted: human gammaherpesvirus 4.

On to `CC1(C)CC[C@]2(C(=O)O)CC[C@]3(C)C(=CC[C@@H]4[C@@]5(C)C[C@@H](O)[C@H](O)C(C)(C)[C@@H]5CC[C@]43C)[C@@H]2C1` [MASLINIC ACID], for which the Activity in the series on Raji [1], with Raji [3] and in the series with Raji [8] was 0% each time. In addition, in series [2], the viability at 48 h, 5000 mol ratio relative to TPA is 0%. In addition, in series [4], the viability at 48 h, 10 mol ratio relative to TPA amounted to 100%. In addition, the viability at 48 h, 100 mol ratio relative to TPA in [5] is 70%. Moreover, in the series with Raji [6], the EBV-EA activation relative to TPA worked out at 100%. Also, in series [7], the viability at 48 h, 1000 mol ratio relative to TPA was found to be 0%. Besides, in the series on Raji [9], the EBV early antigen activation relative to TPA worked out at 65.6%.

As to `C=C(C)[C@@H]1CC[C@]2(C(=O)OC)CC[C@]3(C)[C@H](CC[C@@H]4[C@@]5(C)CC[C@H](O)C(C)(C)[C@@H]5CC[C@]43C)[C@@H]12` [METHYL BETULINATE], the results for the Activity in the series with Raji [1], in the series with Raji [3] and in the series on Raji [8] were 71.5%, 0% and 0%, respectively. Moreover, the viability at 48 h, 5000 mol ratio relative to TPA in series [2] came to 80%. Moreover, the viability at 48 h, 10 mol ratio relative to TPA in [4] stood at 100%. In [5], the viability at 48 h, 100 mol ratio relative to TPA was 100%. For the same molecule, the EBV-EA activation relative to TPA in the series on Raji [6] was found to be 100%. In series [7], the viability at 48 h, 1000 mol ratio relative to TPA was over 80%. Besides, in the series on Raji [9], the EBV early antigen activation relative to TPA stood at 100%.

As to `COC(=O)[C@]12CCC(C)(C)C[C@H]1C1=CC[C@@H]3[C@@]4(C)CC[C@H](O)C(C)(C)[C@@H]4CC[C@@]3(C)[C@]1(C)CC2` [METHYL OLEANOLATE], the Activity worked out at 29.5% in the series on Raji [1], 0% with Raji [3] and 0% in the series on Raji [8]. The viability at 48 h, 5000 mol ratio relative to TPA in series [2] is 0%. The viability at 48 h, 10 mol ratio relative to TPA in [4] came out at 100%. Besides, the viability at 48 h, 100 mol ratio relative to TPA in series [5] was determined as 80%. The EBV-EA activation relative to TPA with Raji [6] is 100%. The viability at 48 h, 1000 mol ratio relative to TPA in [7] worked out at 50%. Moreover, the EBV early antigen activation relative to TPA with Raji [9] is 46.3%.

Take `CC1(C)CC[C@]2(C(=O)O)CC[C@]3(C)C(=CC[C@@H]4[C@@]5(C)CC[C@H](O)C(C)(C)[C@@H]5CC[C@]43C)[C@@H]2C1` [OLEANOLIC_ACID]: the Activity with Raji [1] worked out at 30%; in the series with Raji [3] it was 2.3%; in the series with Raji [8], 0%. Further, the viability at 48 h, 5000 mol ratio relative to TPA in [2] came out at 20%. Besides, the viability at 48 h, 10 mol ratio relative to TPA in [4] worked out at 100%. For the same molecule, the viability at 48 h, 100 mol ratio relative to TPA in [5] was over 80%. Further, the EBV-EA activation relative to TPA with Raji [6] worked out at 100%. Further, the viability at 48 h, 1000 mol ratio relative to TPA in series [7] was 60%. Moreover, the EBV early antigen activation relative to TPA with Raji [9] came out at 80%.
